We go through nine molecules from paper PMC5320532, “Intracellular drug bioavailability: a new predictor of system dependent drug disposition” (Scientific Reports, 2017).

“Also recorded” adds a separate entry of the source. Read-outs that look alike come from different tables or passages of the source.

The subject of data set [1] is P-gp. Briefly: Intracellular compound accumulation (Kp) and intracellular bioavailability (Fic). To be noted: dog, P-gp-transfected MDCK cells.
Method: (§1) To determine intracellular unbound compound concentrations, we measured intracellular fraction of unbound compound (fu,cell) in parallel with total intracellular compound accumulation (Ccell), as described below. Intracellular compound bioavailability (Fic) was calculated as the ratio between intracellular unbound compound concentration (Cu,cell = fu,cell∙Ccell) (the concentration available to bind intracellular targets) and the externally added compound concentration (Cmedium):
(§2) HEK293 cells were grown for two days in 24-well plates, as previously described[25]. MDCK cells were grown for two days in 96-well plates, prior to the intracellular compound accumulation experiments. The growth media were the same as described in the section ‘Cell line maintenance’ without addition of hygromycin B to avoid transporter inhibition.
(§3) Intracellular compound accumulation at steady-state was measured essentially as described before[25]. Briefly, cells were washed twice with HBSS and incubated for 45 min with solutions of single test compounds (in HBSS) on an orbital shaker (300 rpm) at 37 °C. At the end of the experiment, the remaining extracellular compound solutions were collected and cells were washed twice with ice-cold phosphate-buffered saline pH 7.4 (PBS). For hepatocytes in suspension, the cells were separated from the extracellular solutions by centrifugation (100 × g for 5 min). Compounds were extracted from the cells using acetonitrile/water (60:40) spiked with 50 nM warfarin (internal standard). Extracellular medium samples were diluted 10-fold with the same extraction solution. […] Protein concentrations were measured in representative wells of the plates using the BCA Protein Assay Reagent Kit (Thermo Fisher Scientific Inc.).
(§4) The ratio between total compound concentrations in the cells and in the medium (Kp) was calculated according to:
(§5) where Acell is the amount of compound in the cell samples, Vcell is the cell volume (6.5 μL/mg protein[80]), and Cmedium is the compound concentration in the medium sample.
Data set [2] is described as follows: Intracellular fraction of unbound compound (fu,cell), dialysis of cell homogenate. To be noted: freshly isolated human hepatocyte homogenate; geometrical mean ± S.E.M.; read-out: fu,cell hepatocytes. In kind it is in vitro ADME.
Experiment in data set [3]: as above
Conditions: dog, homogenate of MDCK cells transfected with human P-gp.

A short description of data set [4]: Intracellular compound accumulation (Kp) and intracellular bioavailability (Fic). Conditions: geometrical mean ± S.E.M.; for Kp at 45 min: freshly isolated human hepatocytes in suspension; for Kp at 24 h: human hepatocytes cultured for 24 h in monolayer format, Monolayer hepatocytes (human, 24 h culture). In kind it is in vitro ADME. The protocol: where Kp is the ratio Ccell/Cmedium.
Hepatocytes were isolated from human liver tissue obtained from two donors undergoing surgical resections at the Department of Surgery, Uppsala University Hospital. […] Isolation was performed using a two-step collagenase procedure, as previously described.
For the corresponding experiments in human hepatocytes, two cell culture configurations were used: freshly isolated cells in suspension, or cells cultivated as monolayers for 24 h. The freshly isolated cells were suspended directly after isolation at a concentration of 5 × 10^6 cells/ml in HBSS. The cell suspension (100 μl) was added to 96-well plates, which were immediately used for accumulation experiments. […] After cell attachment, medium was replaced by hepatocyte maintenance medium (Lonza) supplemented with insulin (10 μg/ml), transferrin (5.5 μg/ml), selenium (5 ng/ml), penicillin (100 units/ml), streptomycin (100 μg/ml), and dexamethasone (0.1 μM). Cells were kept in maintenance medium for 24 h, until the start of the intracellular compound accumulation experiments.

Experiment in data set [5]: as above
Method: as §1, §2, §3, §4, §5
To be noted: human, mock-transfected HEK293 cells.

The nature of data set [6]: Intracellular fraction of unbound compound (fu,cell), dialysis of cell homogenate. Conditions: human, mock-transfected HEK293 cell homogenate.
Data set [7] has as its system P-gp. The data set is described as follows: Intracellular compound accumulation (Kp) and intracellular bioavailability (Fic). To be noted: dog, MDCK II wild-type cells.
Method: as §1, §2, §3, §4, §5
Data set [8] has as its system P-gp. Described as above. To be noted: dog, P-gp-KO (CRISPR) MDCK cells.
Method: as §1, §2, §3, §4, §5
The nature of data set [9]: Intracellular fraction of unbound compound (fu,cell), dialysis of cell homogenate. In kind it is in vitro ADME. To be noted: human; OATP1B1-transfected HEK293 cell homogenate; geometrical mean ± S.E.M.; read-out: Cell binding (fu,cell). The protocol: For intracellular fraction of unbound compound experiments, cell lines or primary cells were suspended to a concentration of 10 × 10^6 cells/ml in Hank’s balanced salt solution (HBSS). Cell suspensions were homogenized for 10 s with a VCX-500 ultrasonic processor (Sonics & Materials) at 20% intensity and used immediately for binding experiments.
Binding to cell homogenates at steady-state was measured using dialysis as previously described. […] Briefly, the cell homogenate was spiked with six randomly-chosen compounds. Homogenates were dialyzed for 4 h using a Rapid Equilibrium Dialysis device (Thermo Fisher Scientific Inc.). At the end of the incubation, uniform sample matrices were obtained by addition of blank homogenate to samples from the buffer chamber, and by addition blank buffer to samples from the homogenate chamber. Dilutions of samples from the homogenate chambers (10-fold and 100-fold) were prepared. […] Compounds in the supernatant were analyzed by ultra-performance liquid chromatography coupled to tandem mass spectrometry (UPLC-MS/MS), as described below.
The fraction of compound that was not bound to cell homogenate (fu,hom) was calculated according to: […]
where PAbuffer is the peak area of compound in the buffer chamber and PAhom is the peak area of compound in the homogenate chamber, both corrected for the peak area of the internal standard in the respective chamber. For each compound, the dilution of the homogenate sample where PAhom was closest to PAbuffer was used.
The fraction of unbound compound in the cell (fu,cell) was calculated according to: […]

For data set [10], the system named is OATP1B1. Briefly: Intracellular compound accumulation (Kp) and intracellular bioavailability (Fic). To be noted: human, OATP1B1-transfected HEK293 cells.
Method: as §1, §2, §3, §4, §5
For data set [11], the system named is primary human hepatocytes. The data set is described as follows: Metabolic clearance (CLint) in primary human hepatocytes. The data set is classed as in vitro ADME. Conditions: 1 μM; freshly isolated human hepatocytes in suspension vs after 24 h in monolayer. The procedure: Metabolic clearance (CLint) was determined, as previously described. […] At time points 0, 10, 30, and 60 min, the reaction was stopped by addition of acetonitrile (200 μl) spiked with 50 nM warfarin (internal standard). […] CLint was calculated as the product of the compound disappearance rate and incubation volume, normalized by the cell number.

Data set [12] deals with P-gp. More on the design: method as in earlier work. Conditions: dot = substrate; collated from literature ref 74, 75, 76; cited from earlier work.
Details of data set [13]: method as in PMID 19785645. To be noted: human subjects; co-administration of cyclosporine A ref 58; cited from earlier work.
For data set [14], the system named is OATP1B1. To be noted: dot = substrate; collated from literature ref 74, 75, 76; cited from earlier work.
The nature of data set [15]: in vitro. Conditions: dog.
Data set [16] deals with P-gp-transfected MDCK cells. The data set is described as follows: Intracellular compound accumulation (Kp) and intracellular bioavailability (Fic). To be noted: 0.5 μM; ratio cP-gp-KO/P-gp-transfected.
Method: as §1, §2, §3, §4, §5
Data set [17] in a line: in vitro. To be noted: human.
Data set [18] deals with OATP1B1-transfected HEK293 cells. To be noted: human.
Method: as §1, §2, §3, §4, §5
Data set [19] relates to mock-transfected HEK293 cells. Conditions: human.
Method: as §1, §2, §3, §4, §5
In data set [20] the test system is P-gp-KO (CRISPR) MDCK cells. To be noted: dog.
Method: as §1, §2, §3, §4, §5
For data set [21], the system named is P-gp. Briefly: in vitro. Conditions: dog.
Method: as §1, §2, §3, §4, §5
The subject of another data set is MDCK II wild-type cells. To be noted: dog.
Data set [22] relates to P-gp-transfected MDCK cells. To be noted: dog.
Method: as §1, §2, §3, §4, §5
Data set [23] relates to P-gp-transfected MDCK cells (+ elacridar). Conditions: dog, MDCK-MDR1.

Method for MDCK II wild-type cells: as §1, §2, §3, §4, §5

For `COc1ccc2c(c1)c(CC(=O)O)c(C)n2C(=O)c1ccc(Cl)cc1` [Indomethacin], the Kp at 45 min, 0.5 μM in the data set with P-gp [1] turned out to be 18 ± 2; in the data set on P-gp [8], 25 ± 2. The fraction unbound at 4 h in data set [2] is 0.048 ± 0.012; in data set [3] it was 0.025 ± 0.005; in data set [6], 0.053 ± 0.006; in data set [9], 0.065 ± 0.004. In addition, the Kp at 45 min amounted to 50 ± 17 in data set [4] and 22 ± 2 in the data set on P-gp [7]. In data set [4], the Kp at 24 h is 49 ± 4. The Kp at 45 min, 0.1 μM in data set [5] came out at 13 ± 2; in the data set on OATP1B1 [10] it was 14 ± 1.

Turning to `CN(CCOc1ccc(CC2SC(=O)NC2=O)cc1)c1ccccn1` (stereo not shown) [Rosiglitazone], the Kp at 45 min, 0.5 μM was 30 ± 4 in the data set with P-gp [1] and 67 ± 11 in the data set on P-gp [8]. Also, the fraction unbound at 4 h in data set [2] amounted to 0.02 ± 0.006; in data set [3] it was 0.021 ± 0.003; in data set [6], 0.058 ± 0.004; in data set [9] it was 0.044 ± 0.001. The Kp at 45 min in [4] was 152 ± 12; with P-gp [7], 38 ± 7. The Kp at 24 h in data set [4] came out at 196 ± 17. Further, the Kp at 45 min, 0.1 μM turned out to be 19 ± 2 in data set [5] and 15 ± 2 with OATP1B1 [10].

Regarding `CC(C)c1nc(CN(C)C(=O)N[C@H](C(=O)N[C@@H](Cc2ccccc2)C[C@H](O)[C@H](Cc2ccccc2)NC(=O)OCc2cncs2)C(C)C)cs1` [Ritonavir], the “metabolic clearance (CLint), suspension vs monolayer hepatocytes” value in data set [11] is reported as “higher rates; also recorded: reduced”. In the data set with P-gp [12], the P-gp substrate entry was “●”.

As to `O=C(O)C[C@H](O)C[C@H](O)/C=C/c1c(C2CC2)nc2ccccc2c1-c1ccc(F)cc1` [Pitavastatin], the “increase of AUC by cyclosporine A” value in data set [13] was 5- to 15 fold. Moreover, the Kp at 45 min, 0.5 μM with P-gp [1] amounted to 11 ± 2; with P-gp [8], 13 ± 1. In addition, the fraction unbound at 4 h in [2] was 0.017 ± 0.011; in [3], 0.023 ± 0.005; in data set [6], 0.023 ± 0.005; in data set [9], 0.025 ± 0.006. The Kp at 45 min, 0.1 μM in data set [5] was 4.2 ± 0.3; in the data set on OATP1B1 [10] it was 35 ± 3. In addition, in the data set on P-gp [7], the Kp at 45 min was 11. The OATP1B1 substrate entry in the data set on OATP1B1 [14] is on record as “●”. Moreover, the P-gp substrate result in the data set on P-gp [12] was “●”.

`COc1ccc(CCN2CCC(Nc3nc4ccccc4n3Cc3ccc(F)cc3)CC2)cc1` [Astemizole]: the Kp at 45 min, 0.5 μM with P-gp [1] came to 995 ± 94; with P-gp [8], 2010 ± 200. Further, the fraction unbound at 4 h in [2] is 0.00036 ± 0.00012; in data set [6], 0.0018 ± 0.0006; in data set [9], 0.0013 ± 0.0004. The Kp at 45 min was determined as 1990 ± 1090 in data set [4] and 1680 ± 71 in the data set with P-gp [7]. Moreover, the Kp at 24 h in [4] worked out at 1600 ± 308. The Kp at 45 min, 0.1 μM in data set [5] stood at 821 ± 253; with OATP1B1 [10], 738 ± 576. In addition, the fraction unbound in the data set “in vitro [15]” was found to be 1e-05 ± 2e-05.

`Cc1c(O)cccc1C(=O)N[C@@H](CSc1ccccc1)[C@H](O)CN1C[C@H]2CCCC[C@H]2C[C@H]1C(=O)NC(C)(C)C` [Nelfinavir]: the Kp at 45 min, 0.5 μM came to 53 ± 19 with P-gp [1] and 1080 ± 50 in the data set on P-gp [8]. The “Fic fold lower in P-gp-transfected than in cP-gp-KO MDCK cells” value in [16] is listed as 20 fold. The fraction unbound at 4 h in data set [3] was 0.0001 ± 4e-05; in [6] it was 0.00039 ± 8e-05; in data set [9], 0.00044 ± 0.0001. Besides, the Kp at 45 min, 0.1 μM in [5] was found to be 337 ± 113; with OATP1B1 [10], 652 ± 228. Further, in the data set on P-gp [7], the Kp at 45 min was found to be 494 ± 74. Besides, the P-gp substrate entry in the data set with P-gp [12] is reported as “●”.

In the case of `CC(C)n1c(/C=C/C(O)CC(O)CC(=O)O)c(-c2ccc(F)cc2)c2ccccc21` (stereo not shown) [Fluvastatin], in [13], the “increase of AUC by cyclosporine A” value is reported as 3- to 4 fold. Moreover, the Kp at 45 min, 0.5 μM was 21 ± 2 in the data set with P-gp [1] and 53 ± 4 in the data set on P-gp [8]. For the same molecule, the fraction unbound at 4 h was determined as 0.0099 ± 0.0026 in [3], 0.017 ± 0.003 in data set [6] and 0.015 ± 0.001 in [9]. Further, the values for the Kp at 45 min, 0.1 μM (in data set [5]; in the data set with OATP1B1 [10]) were 45 ± 6 and 94 ± 12, respectively. Further, the Kp at 45 min in the data set on P-gp [7] worked out at 35 ± 5. Further, in the data set on OATP1B1 [14], the OATP1B1 substrate entry is recorded as “●”. In the data set with P-gp [12], the P-gp substrate entry was “●”.

For the molecule `CC(C)(C)NCC(O)COc1ccc(NC(=O)NC2CCCCC2)cc1` (stereo not shown) [Talinolol], the fraction unbound in “in vitro [17]” worked out at 0.074 ± 0.003.

Turning to `CN(C)C(=O)C(CCN1CCC(O)(c2ccc(Cl)cc2)CC1)(c1ccccc1)c1ccccc1` [Loperamide], the “intracellular bioavailability (Fic)” value in data set [18] stood at 6.8±1.8; in data set [19], 4.3±1.7; in data set [20], 0.34±0.35; in the data set on MDCK II wild-type cells, 0.50±0.51; in data set [22], 0.13±0.13; in [23], 0.33±0.33. The fraction unbound in the data set “in vitro [17]” worked out at 0.0078 ± 0.0008; in “in vitro [15]” it was 0.00051 ± 0.00051. Moreover, in the data set on P-gp [21], the Kp came out at 987 ± 198. Besides, the P-gp substrate result in the data set on P-gp [12] is reported as “●”.
